Reference: patent US11505533B2, “Metabolically stable N-acylaminooxadiazoles useful as antibacterial agents” (MICROBIOTIX, INC., priority 2017, dated 2022)
Where two headings read alike, the source gives them in different places.

Assays:
Adenosine A1 = target: T1, Adenosine A1 (Homo sapiens, UniProt P30542); assay type: binding; conditions: for % Inhibition: 10 μM
T1 sequence (P30542 1-326): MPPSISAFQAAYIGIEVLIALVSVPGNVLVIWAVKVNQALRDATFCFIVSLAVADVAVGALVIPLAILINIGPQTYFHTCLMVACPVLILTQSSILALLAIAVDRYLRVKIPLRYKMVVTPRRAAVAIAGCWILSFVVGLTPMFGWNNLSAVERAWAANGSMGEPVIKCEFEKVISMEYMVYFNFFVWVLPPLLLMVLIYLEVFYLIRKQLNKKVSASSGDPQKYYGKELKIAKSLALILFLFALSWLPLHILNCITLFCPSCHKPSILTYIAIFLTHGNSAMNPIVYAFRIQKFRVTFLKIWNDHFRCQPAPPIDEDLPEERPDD

Adrenergic α1B = target: T2, Adrenergic α1B (Rattus norvegicus, UniProt P15823); assay type: binding; conditions: for % Inhibition: 10 μM
T2 sequence (P15823 1-515): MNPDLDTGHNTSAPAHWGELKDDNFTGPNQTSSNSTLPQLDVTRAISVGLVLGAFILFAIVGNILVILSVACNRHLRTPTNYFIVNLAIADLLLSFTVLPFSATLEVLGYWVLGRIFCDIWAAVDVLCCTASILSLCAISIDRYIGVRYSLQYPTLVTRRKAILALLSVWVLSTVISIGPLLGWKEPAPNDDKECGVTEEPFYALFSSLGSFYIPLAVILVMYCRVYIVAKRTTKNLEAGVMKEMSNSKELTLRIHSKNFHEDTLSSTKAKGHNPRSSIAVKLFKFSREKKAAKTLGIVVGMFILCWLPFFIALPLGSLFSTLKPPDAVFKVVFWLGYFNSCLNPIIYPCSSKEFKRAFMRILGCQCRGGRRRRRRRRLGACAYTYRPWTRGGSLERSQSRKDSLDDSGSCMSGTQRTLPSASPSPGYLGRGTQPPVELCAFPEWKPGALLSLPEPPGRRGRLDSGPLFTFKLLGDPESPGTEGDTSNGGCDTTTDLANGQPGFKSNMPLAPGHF

[1] = system: Calcium Channel L-type, Dihydropyridine; assay type: binding; conditions: 10 μM; rat
Cannabinoid CB1 = Cannabinoid CB1 (Homo sapiens, UniProt P21554); assay type: binding; conditions: for % Inhibition: 10 μM
Chain of Cannabinoid CB1 (P21554 whole entry): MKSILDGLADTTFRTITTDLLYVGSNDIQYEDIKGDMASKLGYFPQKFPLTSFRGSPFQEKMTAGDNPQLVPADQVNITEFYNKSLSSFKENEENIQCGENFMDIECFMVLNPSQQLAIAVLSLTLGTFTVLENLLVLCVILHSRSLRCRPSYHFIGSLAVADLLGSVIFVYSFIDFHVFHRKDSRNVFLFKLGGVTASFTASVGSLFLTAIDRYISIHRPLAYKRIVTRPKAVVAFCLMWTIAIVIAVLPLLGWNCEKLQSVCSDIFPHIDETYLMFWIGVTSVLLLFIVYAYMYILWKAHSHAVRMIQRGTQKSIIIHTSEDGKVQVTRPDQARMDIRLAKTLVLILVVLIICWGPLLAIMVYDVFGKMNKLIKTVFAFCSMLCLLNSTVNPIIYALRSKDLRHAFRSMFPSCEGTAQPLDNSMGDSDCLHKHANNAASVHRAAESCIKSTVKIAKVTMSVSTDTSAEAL

MRSA strain BAA-1717 = assay: Neutropenic murine thigh model; assay type: in vivo, mice; conditions: 25 mg/kg PO once, 2 h after infection; CFU counts 24 hrs after dosing; n=4
CYP450, 1A2 [2] = target: T3, CYP450, 1A2 (Homo sapiens, UniProt P05177); conditions: 10 µM
T3 sequence (P05177 1-516): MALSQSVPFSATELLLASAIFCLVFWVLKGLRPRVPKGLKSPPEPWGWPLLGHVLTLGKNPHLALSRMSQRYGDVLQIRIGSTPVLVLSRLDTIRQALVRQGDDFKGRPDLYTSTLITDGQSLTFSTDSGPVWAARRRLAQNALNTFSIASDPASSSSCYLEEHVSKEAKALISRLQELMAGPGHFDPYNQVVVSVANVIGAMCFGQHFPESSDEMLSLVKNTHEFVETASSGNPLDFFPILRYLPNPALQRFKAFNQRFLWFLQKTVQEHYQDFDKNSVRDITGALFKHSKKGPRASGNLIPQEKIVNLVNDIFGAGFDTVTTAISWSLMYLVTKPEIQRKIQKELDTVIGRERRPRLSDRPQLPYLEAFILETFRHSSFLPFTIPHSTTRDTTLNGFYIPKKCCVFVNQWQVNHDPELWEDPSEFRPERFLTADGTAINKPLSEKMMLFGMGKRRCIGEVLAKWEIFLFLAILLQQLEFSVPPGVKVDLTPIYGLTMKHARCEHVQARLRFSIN

CYP450, 2C9 [3] = target: T4, CYP450, 2C9 (Homo sapiens, UniProt P11712); conditions: 10 µM
T4 sequence (P11712 whole entry): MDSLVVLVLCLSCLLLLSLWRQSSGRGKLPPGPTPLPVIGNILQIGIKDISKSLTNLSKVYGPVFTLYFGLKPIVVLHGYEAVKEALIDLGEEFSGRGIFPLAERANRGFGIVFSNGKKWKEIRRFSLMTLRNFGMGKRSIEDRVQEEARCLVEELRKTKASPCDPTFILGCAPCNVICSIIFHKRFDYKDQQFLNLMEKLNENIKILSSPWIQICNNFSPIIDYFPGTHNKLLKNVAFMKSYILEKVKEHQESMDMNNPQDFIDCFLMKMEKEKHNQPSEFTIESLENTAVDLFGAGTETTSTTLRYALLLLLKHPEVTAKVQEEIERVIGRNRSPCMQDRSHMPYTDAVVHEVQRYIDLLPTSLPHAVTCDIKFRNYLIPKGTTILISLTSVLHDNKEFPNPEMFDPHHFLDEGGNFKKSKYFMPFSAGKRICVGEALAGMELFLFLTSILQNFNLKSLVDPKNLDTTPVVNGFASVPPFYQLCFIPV

CYP450, 2D6 [4] = target: T5, CYP450, 2D6 (Homo sapiens, UniProt P10635); conditions: 10 µM
T5 sequence (P10635 whole entry): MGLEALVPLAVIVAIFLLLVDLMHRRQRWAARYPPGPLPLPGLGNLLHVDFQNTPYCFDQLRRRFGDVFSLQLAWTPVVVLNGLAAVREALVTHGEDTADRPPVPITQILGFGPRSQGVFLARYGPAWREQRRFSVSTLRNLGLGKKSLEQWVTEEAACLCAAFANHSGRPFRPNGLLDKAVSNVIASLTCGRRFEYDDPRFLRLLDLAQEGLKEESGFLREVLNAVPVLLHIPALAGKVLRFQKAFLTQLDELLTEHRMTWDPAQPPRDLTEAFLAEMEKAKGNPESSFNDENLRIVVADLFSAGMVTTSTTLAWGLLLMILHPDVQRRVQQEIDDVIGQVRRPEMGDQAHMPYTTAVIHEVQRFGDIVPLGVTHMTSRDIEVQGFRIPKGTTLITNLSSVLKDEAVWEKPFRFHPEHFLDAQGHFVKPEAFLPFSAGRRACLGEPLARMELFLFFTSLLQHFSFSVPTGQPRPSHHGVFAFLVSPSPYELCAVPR

Potassium Channel hERG [5] = target: T6, Potassium Channel hERG (Homo sapiens, UniProt Q12809); conditions: 10 µM
T6 sequence (Q12809 whole entry): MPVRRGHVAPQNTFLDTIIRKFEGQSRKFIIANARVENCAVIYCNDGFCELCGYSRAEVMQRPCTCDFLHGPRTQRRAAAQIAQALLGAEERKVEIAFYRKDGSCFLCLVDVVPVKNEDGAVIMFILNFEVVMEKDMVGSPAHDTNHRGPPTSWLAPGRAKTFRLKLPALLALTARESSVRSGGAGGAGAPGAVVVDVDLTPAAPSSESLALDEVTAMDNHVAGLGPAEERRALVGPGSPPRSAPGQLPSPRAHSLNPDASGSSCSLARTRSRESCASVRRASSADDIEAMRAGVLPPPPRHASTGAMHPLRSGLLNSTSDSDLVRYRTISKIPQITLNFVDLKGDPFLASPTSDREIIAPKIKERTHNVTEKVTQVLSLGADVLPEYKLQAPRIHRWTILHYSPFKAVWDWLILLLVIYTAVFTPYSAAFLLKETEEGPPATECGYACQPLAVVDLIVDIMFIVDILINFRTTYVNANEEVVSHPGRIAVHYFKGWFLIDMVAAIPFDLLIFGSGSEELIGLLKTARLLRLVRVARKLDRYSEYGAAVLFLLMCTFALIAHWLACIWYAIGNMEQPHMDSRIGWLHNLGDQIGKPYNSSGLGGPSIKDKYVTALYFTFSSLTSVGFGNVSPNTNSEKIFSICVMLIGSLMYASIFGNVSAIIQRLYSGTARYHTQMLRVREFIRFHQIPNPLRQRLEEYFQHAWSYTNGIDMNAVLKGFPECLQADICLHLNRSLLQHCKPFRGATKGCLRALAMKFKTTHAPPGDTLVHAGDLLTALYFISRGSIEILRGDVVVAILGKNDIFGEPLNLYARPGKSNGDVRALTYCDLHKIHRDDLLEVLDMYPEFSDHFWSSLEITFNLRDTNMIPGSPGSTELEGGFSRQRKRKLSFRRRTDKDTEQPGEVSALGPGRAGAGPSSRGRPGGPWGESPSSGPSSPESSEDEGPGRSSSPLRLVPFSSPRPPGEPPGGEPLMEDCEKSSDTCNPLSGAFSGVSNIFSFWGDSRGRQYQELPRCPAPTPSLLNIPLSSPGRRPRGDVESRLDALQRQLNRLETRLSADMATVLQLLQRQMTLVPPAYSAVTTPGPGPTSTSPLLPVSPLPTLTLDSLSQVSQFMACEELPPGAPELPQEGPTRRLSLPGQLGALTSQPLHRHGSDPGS

[6] = in vivo
CYP1A2 = CYP1A2 (Homo sapiens, UniProt P05177)
CYP2C19 = CYP2C19 (Homo sapiens, UniProt P33261)
Chain of CYP2C19 (P33261 whole entry): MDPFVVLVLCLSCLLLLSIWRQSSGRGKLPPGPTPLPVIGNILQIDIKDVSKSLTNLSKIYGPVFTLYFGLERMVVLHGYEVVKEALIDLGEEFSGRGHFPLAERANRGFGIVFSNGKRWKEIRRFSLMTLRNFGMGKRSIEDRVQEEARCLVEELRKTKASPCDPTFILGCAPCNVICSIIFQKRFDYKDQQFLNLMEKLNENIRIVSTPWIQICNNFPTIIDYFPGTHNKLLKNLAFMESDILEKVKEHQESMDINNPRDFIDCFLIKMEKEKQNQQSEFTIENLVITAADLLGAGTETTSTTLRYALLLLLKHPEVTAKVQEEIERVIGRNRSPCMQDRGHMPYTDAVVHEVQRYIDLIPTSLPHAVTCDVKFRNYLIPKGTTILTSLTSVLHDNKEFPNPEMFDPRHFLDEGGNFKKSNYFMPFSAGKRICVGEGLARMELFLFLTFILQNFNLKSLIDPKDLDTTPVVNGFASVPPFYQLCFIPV

CYP2C9 = CYP2C9 (Homo sapiens, UniProt P11712)
Chain of CYP2C9 (P11712 whole entry): as the sequence (P11712 whole entry) above

CYP2D6 = CYP2D6 (Homo sapiens, UniProt P10635)
Chain of CYP2D6 (P10635 whole entry): as the sequence (P10635 whole entry) above

CYP3A4 = CYP3A4 (Homo sapiens, UniProt P08684)
Chain of CYP3A4 (P08684 whole entry): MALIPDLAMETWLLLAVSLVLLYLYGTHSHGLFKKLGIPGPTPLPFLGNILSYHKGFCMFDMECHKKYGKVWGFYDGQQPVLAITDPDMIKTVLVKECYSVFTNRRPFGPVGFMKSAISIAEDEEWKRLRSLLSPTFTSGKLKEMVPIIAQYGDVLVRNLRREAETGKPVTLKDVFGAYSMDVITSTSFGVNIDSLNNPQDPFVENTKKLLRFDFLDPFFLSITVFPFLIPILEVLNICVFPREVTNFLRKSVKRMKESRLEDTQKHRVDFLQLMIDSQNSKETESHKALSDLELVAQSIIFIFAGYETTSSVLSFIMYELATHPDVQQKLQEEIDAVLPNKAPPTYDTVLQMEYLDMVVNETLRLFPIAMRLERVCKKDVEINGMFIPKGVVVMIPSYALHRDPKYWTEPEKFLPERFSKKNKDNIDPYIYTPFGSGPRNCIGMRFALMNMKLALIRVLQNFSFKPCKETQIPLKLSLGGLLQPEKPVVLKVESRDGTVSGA

hERG potassium channel = hERG potassium channel (Homo sapiens, UniProt Q12809)
CYP450, 1A2 [7] = target: T3, CYP450, 1A2; conditions: 10 μM
CYP450, 2C19 = CYP450, 2C19 (Homo sapiens, UniProt P33261); conditions: 10 μM
Chain of CYP450, 2C19 (P33261 whole entry): as the sequence (P33261 whole entry) above

CYP450, 2C9 [8] = target: T4, CYP450, 2C9; conditions: 10 μM
CYP450, 2D6 [9] = target: T5, CYP450, 2D6; conditions: 10 μM
CYP450, 3A4 = CYP450, 3A4 (Homo sapiens, UniProt P08684); conditions: 10 μM
Chain of CYP450, 3A4 (P08684 whole entry): as the sequence (P08684 whole entry) above

Potassium Channel hERG [10] = target: T6, Potassium Channel hERG; conditions: 10 μM

Row | Structure (SMILES) | % Inhibition (Adenosine A1) [%] | % Inhibition (Adrenergic α1B) [%] | % Inhibition [1] [%] | % Inhibition (Cannabinoid CB1) [%] | % Inhibition (CYP450, 1A2 [7]) [%] | % Inhibition (CYP450, 2C19) [%] | % Inhibition (CYP450, 2C9 [8]) [%] | % Inhibition (CYP450, 2D6 [9]) [%] | % Inhibition (CYP450, 3A4) [%] | % Inhibition (Potassium Channel hERG [10]) [%] | other results
1 | O=C(Nc1nnc(-c2ccc(F)cc2)o1)N1CCc2ccccc2C1 [MBX-4132] | 48 | 21 | 15 | 14 |  |  |  |  |  |  | drop in CFU/g compared to untreated controls (MRSA strain BAA-1717): > 2 log CFU/g; % Inhibition (CYP450, 1A2 [2]): 9%; % Inhibition (CYP450, 2C9 [3]): 10%; % Inhibition (CYP450, 2D6 [4]): 10%; % Inhibition (Potassium Channel hERG [5]): 64%; elevated single dose tolerability [6]: no effects distinct from vehicle controls
2 | O=C(Nc1nnc(-c2ccc(F)cc2)o1)c1ccc(Oc2ccccc2)nc1 [MBX-4237] |  |  | 2 |  |  |  |  |  |  |  | inhibition at 10 µM (Adenosine A1): 10%; inhibition at 10 µM (Adrenergic α1B): -2%; inhibition at 10 µM (Cannabinoid CB1): 7%; inhibition at 10 µM (CYP1A2): 1%; inhibition at 10 µM (CYP2C19): 3%; inhibition at 10 µM (CYP2C9): 5%; inhibition at 10 µM (CYP2D6): -4%; inhibition at 10 µM (CYP3A4): 6%; inhibition at 10 µM (hERG potassium channel): 8%
3 | O=C(Nc1nnc(-c2ccc(F)cc2)o1)c1ccc(OC2CCCCC2)cc1 [MBX-4292] | 8 | 3 | 23 | 11 | 5 | 9 | 10 | 2 | 4 | 8 | 
4 | O=C(Nc1nnc(-c2ccc(F)cc2)o1)N1CC=C(C(F)(F)F)CC1 [MBX-4347] | −4 | 7 | 16 | 0 | 2 | 8 | 4 | 9 | 9 | 0 | 
